Results published in ChEMBL document CHEMBL1201862, “PubChem BioAssay data set” (2004).
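How tested: cells in 96-well plates exposed to compound for 48 hours at five concentrations. GI50 = concentration required for 50% inhibition of growth.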 The source made the active and inactive calls. Cut-off read from the data, not from the text of the source: active = GI50 up to about 1.1 µM and inactive = higher.

Legend:
Test in all cases: DTP human tumour cell line panel, 48 h
TK-10 = test system: TK-10
SW-620 = test system: SW-620
DLD-1 = test system: DLD-1
M14 = test system: M14
786-0 = test system: 786-0
LXFL 529 = test system: LXFL 529
SR = test system: SR
COLO 205 = test system: COLO 205
SF-268 = test system: SF-268
CCRF-CEM = test system: CCRF-CEM
A549 = test system: A549
SK-OV-3 = test system: SK-OV-3
SK-MEL-2 = test system: SK-MEL-2
EKVX = test system: EKVX
HCC 2998 = test system: HCC 2998
OVCAR-3 = test system: OVCAR-3
OVCAR-5 = test system: OVCAR-5
SNB-78 = test system: SNB-78
UACC-62 = test system: UACC-62
NCI-H226 = test system: NCI-H226
IGROV-1 = test system: IGROV-1
HT-29 = test system: HT-29
SK-MEL-5 = test system: SK-MEL-5
M19-MEL = test system: M19-MEL
NCI-H460 = test system: NCI-H460
Malme-3M = test system: Malme-3M
DMS-273 = test system: DMS-273
OVCAR-8 = test system: OVCAR-8
LOX IMVI = test system: LOX IMVI
K562 = test system: K562
KM12 = test system: KM12
HOP-62 = test system: HOP-62
DMS-114 = test system: DMS-114
OVCAR-4 = test system: OVCAR-4
MOLT-4 = test system: MOLT-4
XF498 = test system: XF498
SNB-75 = test system: SNB-75
SN12C = test system: SN12C
U-251 = test system: U-251
UO-31 = test system: UO-31
HOP-92 = test system: HOP-92
SNB-19 = test system: SNB-19
NCI-H522 = test system: NCI-H522
RXF 393 = test system: RXF 393
SK-MEL-28 = test system: SK-MEL-28
HCT-116 = test system: HCT-116
CAKI-1 = test system: CAKI-1
SF-539 = test system: SF-539
NCI-H23 = test system: NCI-H23
SF-295 = test system: SF-295
RPMI-8226 = test system: RPMI-8226
HL-60 = test system: HL-60
KM-20L2 = test system: KM-20L2
HCT-15 = test system: HCT-15
ACHN = test system: ACHN
UACC-257 = test system: UACC-257
A498 = test system: A498

CC(=O)/C=C1\CC(=O)N(C)c2ccccc2N1
GI50 (TK-10): > 100 µM (inactive) | GI50 (SW-620): > 100 µM (inactive) | GI50 (DLD-1): 2.86 µM (inactive) | GI50 (M14): > 100 µM (inactive) | GI50 (786-0): > 100 µM (inactive) | GI50 (LXFL 529): > 100 µM (inactive) | GI50 (SR): > 100 µM (inactive) | GI50 (COLO 205): 44.7 µM (inactive) | GI50 (SF-268): > 100 µM (inactive) | GI50 (CCRF-CEM): > 100 µM (inactive) | GI50 (A549): > 100 µM (inactive) | GI50 (SK-OV-3): > 100 µM (inactive) | GI50 (SK-MEL-2): > 100 µM (inactive) | GI50 (EKVX): > 100 µM (inactive) | GI50 (HCC 2998): > 100 µM (inactive) | GI50 (OVCAR-3): > 100 µM (inactive) | GI50 (OVCAR-5): > 100 µM (inactive) | GI50 (SNB-78): > 100 µM (inactive) | GI50 (UACC-62): > 100 µM (inactive) | GI50 (NCI-H226): > 100 µM (inactive) | GI50 (IGROV-1): > 100 µM (inactive) | GI50 (HT-29): > 100 µM (inactive) | GI50 (SK-MEL-5): 0.57 µM (active) | GI50 (M19-MEL): > 100 µM (inactive) | GI50 (NCI-H460): > 100 µM (inactive) | GI50 (Malme-3M): > 100 µM (inactive) | GI50 (DMS-273): > 100 µM (inactive) | GI50 (OVCAR-8): > 100 µM (inactive) | GI50 (LOX IMVI): > 100 µM (inactive) | GI50 (K562): > 100 µM (inactive) | GI50 (KM12): > 100 µM (inactive) | GI50 (HOP-62): > 100 µM (inactive) | GI50 (DMS-114): 29.3 µM (inactive) | GI50 (OVCAR-4): > 100 µM (inactive) | GI50 (MOLT-4): > 100 µM (inactive) | GI50 (XF498): > 100 µM (inactive) | GI50 (SNB-75): 0.0723 µM (active) | GI50 (SN12C): > 100 µM (inactive) | GI50 (U-251): > 100 µM (inactive) | GI50 (UO-31): > 100 µM (inactive) | GI50 (HOP-92): > 100 µM (inactive) | GI50 (SNB-19): > 100 µM (inactive) | GI50 (NCI-H522): > 100 µM (inactive) | GI50 (RXF 393): > 100 µM (inactive) | GI50 (SK-MEL-28): > 100 µM (inactive) | GI50 (HCT-116): > 100 µM (inactive) | GI50 (CAKI-1): > 100 µM (inactive) | GI50 (SF-539): > 100 µM (inactive) | GI50 (NCI-H23): > 100 µM (inactive) | GI50 (SF-295): > 100 µM (inactive)

C[C@@]1(Cc2ccccc2)C(=O)N2[C@@H](CO)C(c3ccccc3)O[C@]2(C)c2ccccc21 (stereo partly drawn)
GI50 (RPMI-8226): 76 µM (inactive) | GI50 (TK-10): > 100 µM (inactive) | GI50 (SW-620): 91.6 µM (inactive) | GI50 (DLD-1): > 100 µM (inactive) | GI50 (M14): > 100 µM (inactive) | GI50 (786-0): 52.7 µM (inactive) | GI50 (LXFL 529): > 100 µM (inactive) | GI50 (SR): > 100 µM (inactive) | GI50 (HL-60): > 100 µM (inactive) | GI50 (COLO 205): > 100 µM (inactive) | GI50 (SF-268): > 100 µM (inactive) | GI50 (CCRF-CEM): 81.1 µM (inactive) | GI50 (A549): > 100 µM (inactive) | GI50 (SK-OV-3): > 100 µM (inactive) | GI50 (SK-MEL-2): > 100 µM (inactive) | GI50 (EKVX): > 100 µM (inactive) | GI50 (OVCAR-3): > 100 µM (inactive) | GI50 (OVCAR-5): > 100 µM (inactive) | GI50 (SNB-78): > 100 µM (inactive) | GI50 (UACC-62): > 100 µM (inactive) | GI50 (NCI-H226): > 100 µM (inactive) | GI50 (IGROV-1): > 100 µM (inactive) | GI50 (SK-MEL-5): > 100 µM (inactive) | GI50 (M19-MEL): > 100 µM (inactive) | GI50 (DMS-273): > 100 µM (inactive) | GI50 (OVCAR-8): > 100 µM (inactive) | GI50 (KM-20L2): > 100 µM (inactive) | GI50 (HCT-15): > 100 µM | GI50 (LOX IMVI): > 100 µM (inactive) | GI50 (K562): > 100 µM (inactive) | GI50 (ACHN): > 100 µM (inactive) | GI50 (KM12): > 100 µM (inactive) | GI50 (HOP-62): > 100 µM (inactive) | GI50 (DMS-114): > 100 µM (inactive) | GI50 (OVCAR-4): > 100 µM (inactive) | GI50 (MOLT-4): 32.3 µM (inactive) | GI50 (SNB-75): 32 µM (inactive) | GI50 (U-251): > 100 µM (inactive) | GI50 (UO-31): > 100 µM (inactive) | GI50 (HOP-92): > 100 µM (inactive) | GI50 (SNB-19): > 100 µM (inactive) | GI50 (NCI-H522): 81.1 µM (inactive) | GI50 (RXF 393): > 100 µM (inactive) | GI50 (SK-MEL-28): > 100 µM (inactive) | GI50 (HCT-116): > 100 µM (inactive) | GI50 (CAKI-1): 26.2 µM (inactive) | GI50 (SF-539): > 100 µM (inactive) | GI50 (NCI-H23): > 100 µM (inactive) | GI50 (SF-295): 72.4 µM (inactive)

CCOC(=O)N1CCC(N[C@@H]2c3cc4c(cc3[C@@H](c3cc(OC)c(O)c(OC)c3)[C@H]3C(=O)OC[C@@H]32)OCO4)CC1
GI50 (SW-620): 2.19 µM (inactive) | GI50 (DLD-1): 6.68 µM (inactive) | GI50 (M14): 1.5 µM (inactive) | GI50 (786-0): 0.764 µM (active) | GI50 (LXFL 529): 6.78 µM (inactive) | GI50 (COLO 205): 6 µM (inactive) | GI50 (SF-268): 2.73 µM (inactive) | GI50 (CCRF-CEM): 0.465 µM (active) | GI50 (SK-OV-3): 0.966 µM (active) | GI50 (SK-MEL-2): 6.03 µM (inactive) | GI50 (EKVX): 1.97 µM (inactive) | GI50 (OVCAR-3): 6.12 µM (inactive) | GI50 (SNB-78): 16 µM (inactive) | GI50 (UACC-62): 0.771 µM (active) | GI50 (IGROV-1): 2.95 µM (inactive) | GI50 (HT-29): 2.63 µM (inactive) | GI50 (SK-MEL-5): 1.12 µM (active) | GI50 (M19-MEL): 2.07 µM (inactive) | GI50 (NCI-H460): 0.0352 µM (active) | GI50 (Malme-3M): 1.79 µM (inactive) | GI50 (OVCAR-8): 2.18 µM (inactive) | GI50 (HCT-15): 0.771 µM | GI50 (LOX IMVI): 1.01 µM (active) | GI50 (K562): 2 µM (inactive) | GI50 (ACHN): 0.289 µM (active) | GI50 (KM12): 2.07 µM (inactive) | GI50 (HOP-62): 0.853 µM (active) | GI50 (SNB-75): 2.18 µM (inactive) | GI50 (U-251): 1 µM (active) | GI50 (UO-31): 1.08 µM (active) | GI50 (HOP-92): 0.895 µM (active) | GI50 (UACC-257): 6.55 µM (inactive) | GI50 (SNB-19): 1.05 µM (active) | GI50 (A498): 0.262 µM (active) | GI50 (SK-MEL-28): 9.29 µM (inactive) | GI50 (HCT-116): 2.7 µM (inactive) | GI50 (CAKI-1): 0.647 µM (active) | GI50 (NCI-H23): 0.501 µM (active) | GI50 (SF-295): 0.597 µM (active)
